Measured values: the NIST ThermoML archive (doi:10.1021/acs.jced.6b01058)

Columns and labels:
[1] = wn = mass fraction of the nth substance listed; conditions: 85 kPa, Liquid, Vibrating tube method
[2] = mn = molality of the nth substance listed, in mol/kg; conditions: 85 kPa, Liquid, Vibrating tube method
[3] = 85 kPa, Liquid, Vibrating tube method

CCO [ethanol] + O
mass density [kg/m3], [1]
Conditions | 298.15 K | 303.15 K | 308.15 K | 313.15 K
w1 = 0.04 | 990.13 | 988.79 | 987.24 | 985.42
w1 = 0.08 | 983.9 | 982.43 | 980.77 | 978.85
w1 = 0.16 | 972.57 | 970.69 | 968.6 | 966.4

CO [methanol] + O
mass density [kg/m3], [1]
Conditions | 298.15 K | 303.15 K | 308.15 K | 313.15 K
w1 = 0.04 | 989.97 | 988.62 | 987.03 | 985.22
w1 = 0.08 | 982.92 | 981.47 | 979.91 | 978.12
w1 = 0.16 | 969.42 | 967.61 | 965.92 | 963.68

CCCO [propan-1-ol] + O
mass density [kg/m3], [1]
Conditions | 298.15 K | 303.15 K | 308.15 K | 313.15 K
w1 = 0.04 | 990.59 | 989.14 | 987.49 | 985.62
w1 = 0.08 | 985.46 | 983.86 | 982.13 | 980.12
w1 = 0.16 | 973.64 | 971.45 | 969.08 | 966.84

CCCCCCCCCCCC(=O)N(C)CC(=O)[O-].[Na+] [sodium [dodecanoyl(methyl)amino]acetate] + O
mass density [kg/m3], [2]
Conditions | m1 = 0.02 | m1 = 0.03 | m1 = 0.04 | m1 = 0.05 | m1 = 0.06 | m1 = 0.07 | m1 = 0.08 | m1 = 0.09
298.15 K | 998.13 | 998.42 | 998.73 | 999.03 | 999.43 | 999.67 | 1000.07 | 1000.37
303.15 K | 996.67 | 996.99 | 997.32 | 997.61 | 997.96 | 998.27 | 998.59 | 998.88
308.15 K | 995.04 | 995.33 | 995.67 | 995.93 | 996.27 | 996.56 | 996.88 | 997.14
313.15 K | 993.18 | 993.48 | 993.8 | 994.06 | 994.41 | 994.7 | 994.95 | 995.27

O [water]
[3]
Conditions | mass density [kg/m3]
298.15 K | 997.29
303.15 K | 995.9
308.15 K | 994.27
313.15 K | 992.46
